Measurements published in publication PMC4805251, “Novel Antimicrobial Peptides EeCentrocins 1, 2 and EeStrongylocin 2 from the Edible Sea Urchin Echinus esculentus Have 6-Br-Trp Post-Translational Modifications” (PLoS ONE, 2016).
Where “and” joins values, the source holds several entries; their conditions need not be identical. Identical values can stand only once. Like-named read-outs stand apart in the source and are kept apart here. Ends that are not written are not given here.

How the values were obtained:
Type in all cases: cell-based
human red blood cells = assay: Haemolytic activity assay; conditions: human red blood cells in PBS, 1 h at 37°C, absorbance at 550 nm, 0.05% Triton X-100 = 100%, duplicates
Procedure: Synthesised peptide analogues of EeCentrocin 1 and 2 were screened for eukaryotic cell-toxicity with a haemolytic activity assay using human red blood cells as described previously. The assay was performed on 96-well U-shaped microtiter plates (Nagle Nunc) with 50 μl peptide sample, 40 μl phosphate-buffered saline (PBS) and 10 μl red blood cells. The final peptide concentrations ranged from 100 to 0.1 μM in two-fold serial dilutions. After one hour of incubation at 37°C in a shaker, the plate was centrifuged at 200 g for 5 min and the supernatants (60 μl) were carefully transferred to a new flat-bottomed polycarbonate microtiter plate (Nagle Nunc) and absorbance at 550 nm was measured on a Synergy H1 multimode reader (BioTek, VT, USA). Cell suspension added 0.05% Triton X-100 (Sigma-Aldrich, MO, USA) in PBS served as positive (100% haemolysis) control and cell suspension added PBS served as negative (0% haemolysis) control. The percent haemolysis was calculated using the formula [(Asample-Abaseline)/(Atriton-Abaseline)]×100. The experiment was performed in duplicates.

[1] = test system: Escherichia coli #1 (ATCC 25922)
In short: (§1)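 Colonies were grown overnight in Müller-Hinton broth, subcultured 2 h, then diluted to 1.3–1.5 × 10^4 bacteria/ml and added to serially diluted samples. Plates were incubated 24 h at 35°C while OD595 was recorded hourly, and MIC was taken as the lowest concentration inhibiting growth by >90%.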

[2] = test system: Pseudomonas aeruginosa #1 (ATCC 27853)
In short: as §1

[3] = MH medium, 24 h at 35°C, OD595, >90% inhibition, value of Table 2, native peptides run once, synthetic in triplicates

Sequence: WGHKLRSSWNKVKHAVKKGAGYASGACRVLGH [EeCentrocin 2 HC]
- % haemolysis (human red blood cells; 25.0 μM): 11.7%
- % haemolysis (human red blood cells; 50.0 μM): 18.9%
- % haemolysis (human red blood cells; 100 μM): 56.3% and 56.4%
- MIC E. coli #1 [1, 3]: 1.56 µM
- MIC raw data E. coli #1 ([1]; parallel 1 of three): 1.56 µM
- MIC raw data E. coli #1 ([1]; parallel 2 of three): 0.78 µM
- MIC raw data E. coli #1 ([1]; parallel 3 of three): 0.78 µM
- MIC P. aeruginosa #1 [2, 3]: 0.78 µM
- MIC raw data P. aeruginosa #1 ([2]; parallel 1 of three): 0.78 µM
- MIC raw data P. aeruginosa #1 ([2]; parallel 2 of three): 0.78 µM
- MIC raw data P. aeruginosa #1 ([2]; parallel 3 of three): 0.78 µM
